Experiment [1] has as its target T1, EGFR (Homo sapiens, UniProt P00533, L858R/T790M).
T1 construct: endogenous in cells; host or cells: H1975
Put plainly: Cell Degradation 1: EGFR degradation in H1975 cells, HTRF assay. It is filed as cell-based. The following applies: 16 h treatment, EGFR degradation by HTRF. The procedure:
After 16 h treatment, add 100 μl 1×lysis buffer to each well; seal the plate and incubate 1 hour at room temperature on a plate shaker; Once the cells are lysed, 16 μL of cell lysate are transferred to a PE 384-well HTRF detection plate; 4 μL of pre-mixed HTRF antibodies are added to each well; Cover the plate with a plate sealer, spin 1000 rpm for 1 min, Incubate overnight at room temperature; Read on BMG PheraStar with HTRF protocol (337 nm-665 nm-620 nm).
(§1) The IC50 (DC50) value of a compound can be obtained by fitting the following equation Y=Bottom+(TOP−Bottom)/(1+((IC50/X)^hillslope))
(§2) Wherein, X and Y are known values, and IC50, Hillslope, Top and Bottom are the parameters obtained by fitting with software. Y is the inhibition percentage (calculated from the equation), X is the concentration of the compound; IC50 is the concentration of the compound when the 50% inhibition is reached. The smaller the IC50 value is, the stronger the inhibitory ability of the compound is. Vice versa, the higher the IC50 value is, the weaker the ability the inhibitory ability of the compound is; Hillslope represents the slope of the fitted curve, generally around 1*; Bottom represents the minimum value of the curve obtained by data fitting, which is generally 0%±20%; Top represents the maximum value of the curve obtained by data fitting, which is generally 100%±20%. The experimental data were fitted by calculating and analyzing with Dotmatics data analysis software.
Background: TR-FRET usually uses a lanthanide donor and a delayed reading to cut background.

For experiment [2], the target named is T2, EGFR (Homo sapiens, UniProt P00533, DEL746-750).
T2 construct: endogenous in cells; host or cells: HCC827
Nature of the experiment: Cell Degradation 2: EGFR degradation in HCC827 cells, HTRF assay. Type of experiment: cell-based. The following applies: 16 h treatment, EGFR degradation by HTRF. The procedure:
After 16 h treatment, add 100 μl 1×lysis buffer to each well; seal the plate and incubate 1 hour at room temperature on a plate shaker; Once the cells are lysed, 16 μl diluted (2 μL to 14 μl 1× lysisi buffer) cell lysate are transferred to a PE 384-well HTRF detection plate; 4 μL of pre-mixed HTRF antibodies are added to each well; Cover the plate with a plate sealer, spin 1000 rpm for 1 min, Incubate overnight at room temperature; Read on BMG PheraStar with HTRF protocol (337 nm-665 nm-620 nm).
as §1, §2

Molecules are shown by their SMILES. Where only a bound is given, the exact number is not on record here.

T2 sequence (P00533 with tags, fused parts or gaps DEL746-750): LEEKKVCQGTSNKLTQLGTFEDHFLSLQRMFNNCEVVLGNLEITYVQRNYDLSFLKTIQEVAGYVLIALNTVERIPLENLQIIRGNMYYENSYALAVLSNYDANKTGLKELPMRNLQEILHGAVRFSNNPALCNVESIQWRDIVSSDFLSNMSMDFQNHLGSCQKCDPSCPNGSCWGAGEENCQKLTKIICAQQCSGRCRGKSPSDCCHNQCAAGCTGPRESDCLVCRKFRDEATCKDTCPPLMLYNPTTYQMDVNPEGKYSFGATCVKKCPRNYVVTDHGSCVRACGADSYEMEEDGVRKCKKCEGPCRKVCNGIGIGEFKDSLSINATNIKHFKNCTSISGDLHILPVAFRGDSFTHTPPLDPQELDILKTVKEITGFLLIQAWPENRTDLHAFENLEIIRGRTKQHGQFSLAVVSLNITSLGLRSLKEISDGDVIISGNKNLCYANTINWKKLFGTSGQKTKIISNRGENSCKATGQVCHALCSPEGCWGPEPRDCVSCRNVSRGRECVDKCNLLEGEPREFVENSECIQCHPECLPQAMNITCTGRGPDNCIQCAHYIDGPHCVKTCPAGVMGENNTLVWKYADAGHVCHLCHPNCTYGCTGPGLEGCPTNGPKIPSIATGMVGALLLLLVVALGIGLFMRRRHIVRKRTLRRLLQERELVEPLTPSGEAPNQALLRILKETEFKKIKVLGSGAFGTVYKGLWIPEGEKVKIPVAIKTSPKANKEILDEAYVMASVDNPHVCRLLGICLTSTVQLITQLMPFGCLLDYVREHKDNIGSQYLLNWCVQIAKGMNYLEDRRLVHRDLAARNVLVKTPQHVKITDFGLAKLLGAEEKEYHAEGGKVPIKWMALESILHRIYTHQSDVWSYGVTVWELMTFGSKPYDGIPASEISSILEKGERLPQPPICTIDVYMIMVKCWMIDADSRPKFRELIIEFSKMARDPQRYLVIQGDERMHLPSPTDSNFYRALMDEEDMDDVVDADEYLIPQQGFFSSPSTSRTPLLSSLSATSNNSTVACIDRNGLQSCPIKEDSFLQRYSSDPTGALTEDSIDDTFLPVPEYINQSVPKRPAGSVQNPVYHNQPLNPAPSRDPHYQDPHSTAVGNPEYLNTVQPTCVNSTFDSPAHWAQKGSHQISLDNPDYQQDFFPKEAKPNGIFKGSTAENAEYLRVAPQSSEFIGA
T2 sequence (Q96SW2 whole entry partner): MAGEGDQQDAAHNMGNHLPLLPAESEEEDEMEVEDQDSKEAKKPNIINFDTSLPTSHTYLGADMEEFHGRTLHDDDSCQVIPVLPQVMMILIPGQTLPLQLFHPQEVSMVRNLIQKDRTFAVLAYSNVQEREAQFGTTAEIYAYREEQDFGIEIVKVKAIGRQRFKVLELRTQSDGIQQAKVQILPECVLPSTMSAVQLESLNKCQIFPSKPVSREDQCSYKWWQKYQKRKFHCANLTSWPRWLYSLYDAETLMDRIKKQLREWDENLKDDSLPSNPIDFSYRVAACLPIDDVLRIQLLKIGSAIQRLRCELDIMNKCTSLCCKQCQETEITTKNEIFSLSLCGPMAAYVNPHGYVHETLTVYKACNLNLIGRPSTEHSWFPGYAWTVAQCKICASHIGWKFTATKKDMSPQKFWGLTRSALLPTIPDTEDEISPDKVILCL
T1 sequence (P00533 25-1210 T790M/L858R): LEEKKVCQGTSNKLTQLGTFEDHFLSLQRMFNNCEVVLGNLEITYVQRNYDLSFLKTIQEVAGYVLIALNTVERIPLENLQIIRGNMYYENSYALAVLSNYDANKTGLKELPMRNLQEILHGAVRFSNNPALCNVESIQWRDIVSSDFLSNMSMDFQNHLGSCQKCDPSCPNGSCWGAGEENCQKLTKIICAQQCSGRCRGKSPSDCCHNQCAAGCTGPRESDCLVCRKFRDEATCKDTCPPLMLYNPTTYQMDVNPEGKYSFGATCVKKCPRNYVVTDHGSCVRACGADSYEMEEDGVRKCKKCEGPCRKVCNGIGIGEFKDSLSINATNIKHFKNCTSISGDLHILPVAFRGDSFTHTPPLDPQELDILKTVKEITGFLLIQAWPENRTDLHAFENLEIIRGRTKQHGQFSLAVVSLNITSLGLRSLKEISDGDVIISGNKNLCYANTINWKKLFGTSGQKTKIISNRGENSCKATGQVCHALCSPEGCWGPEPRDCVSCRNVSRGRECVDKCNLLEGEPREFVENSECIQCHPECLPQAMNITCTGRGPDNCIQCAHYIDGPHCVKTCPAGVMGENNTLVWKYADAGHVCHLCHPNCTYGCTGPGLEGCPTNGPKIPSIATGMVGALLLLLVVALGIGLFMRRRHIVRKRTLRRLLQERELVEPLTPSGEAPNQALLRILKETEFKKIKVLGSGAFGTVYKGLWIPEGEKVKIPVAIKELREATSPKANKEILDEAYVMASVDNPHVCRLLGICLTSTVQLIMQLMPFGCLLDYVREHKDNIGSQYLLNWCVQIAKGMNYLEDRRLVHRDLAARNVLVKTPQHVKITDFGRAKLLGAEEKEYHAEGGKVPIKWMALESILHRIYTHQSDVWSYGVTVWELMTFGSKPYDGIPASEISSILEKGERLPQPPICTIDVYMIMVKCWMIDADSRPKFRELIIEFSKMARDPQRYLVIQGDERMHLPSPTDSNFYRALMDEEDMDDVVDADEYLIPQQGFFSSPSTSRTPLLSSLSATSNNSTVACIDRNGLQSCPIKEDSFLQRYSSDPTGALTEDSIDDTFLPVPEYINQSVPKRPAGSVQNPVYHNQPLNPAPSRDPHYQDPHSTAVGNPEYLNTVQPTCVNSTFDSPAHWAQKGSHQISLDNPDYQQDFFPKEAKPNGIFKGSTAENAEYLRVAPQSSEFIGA

As for `CS(=O)(=O)N1CCc2cccc(Nc3nc(Nc4ccc(N5CCC(N6CCN(CCc7ccc(C8CCC(=O)NC8=O)cc7)CC6)CC5)c(F)c4)nc4[nH]ccc34)c21` (stereo not drawn) [Example 1, 3-(4-(2-(4-(1-(2-fluoro-4-((4-((1-(methylsulfonyl)indolin-7-yl)amino)-7H-pyrrolo[2,3-d]pyrimidin-2-yl)amino)phenyl)piperidin-4-yl)piperazin-1-yl)ethyl)phenyl)piperidine-2,6-dione], the DC50 (usually the concentration giving 50% degradation) in experiment [1] amounted to 0.0099 µM; in experiment [2], 0.0247 µM.

Regarding `COc1cc(CCN2CCN(C3CCN(c4ccc(Nc5nc(Nc6cccc7c6N(S(C)(=O)=O)CC7)c6cc[nH]c6n5)cc4F)CC3)CC2)ccc1C1CCC(=O)NC1=O` (stereo not drawn) [Example 2, 3-(4-(2-(4-(1-(2-fluoro-4-((4-((1-(methylsulfonyl)indolin-7-yl)amino)-7H-pyrrolo[2,3-d]pyrimidin-2-yl)amino)phenyl)piperidin-4-yl)piperazin-1-yl)ethyl)-2-methoxyphenyl)piperidine-2,6-dione], the 50% degradation concentration (DC50) was determined as 0.0369 µM in experiment [1] and 0.0334 µM in experiment [2].

With `CS(=O)(=O)N1CCc2cccc(Nc3nc(Nc4ccc(N5CCC(N6CCN(CCCOc7ccc(OC8CCC(=O)NC8=O)cc7)CC6)CC5)c(F)c4)nc4[nH]ccc34)c21` (stereo not drawn) [Example 4, 3-(4-(3-(4-(1-(2-fluoro-4-((4-((1-(methylsulfonyl)indolin-7-yl)amino)-7H-pyrrolo[2,3-d]pyrimidin-2-yl)amino)phenyl)piperidin-4-yl)piperazin-1-yl)propoxy)phenoxy)piperidine-2,6-dione], the half-maximal degradation concentration (DC50) in experiment [1] was 0.0155 µM; in experiment [2], more than 10 µM.

As for `CS(=O)(=O)N1CCc2cccc(Nc3nc(Nc4ccc(N5CCC(N6CCN(CCOc7cccc(C8CCC(=O)NC8=O)c7)CC6)CC5)c(F)c4)nc4[nH]ccc34)c21` (stereo not drawn) [Example 5, 3-(3-(2-(4-(1-(2-fluoro-4-((4-((1-(methylsulfonyl)indolin-7-yl)amino)-7H-pyrrolo[2,3-d]pyrimidin-2-yl)amino)phenyl)piperidin-4-yl)piperazin-1-yl)ethoxy)phenyl)piperidine-2,6-dione], the figures for the DC50 in experiment [1] and in experiment [2] were 0.009 µM and 0.0626 µM, respectively.

In the case of `CN(CCN1CCN(C2CCN(c3ccc(Nc4nc(Nc5cccc6c5N(S(C)(=O)=O)CC6)c5cc[nH]c5n4)cc3F)CC2)CC1)c1cccc(C2CCC(=O)NC2=O)c1` (stereo not drawn) [Example 6, 3-(3-((2-(4-(1-(2-fluoro-4-((4-((1-(methylsulfonyl)indolin-7-yl)amino)-7H-pyrrolo[2,3-d]pyrimidin-2-yl)amino)phenyl)piperidin-4-yl)piperazin-1-yl)ethyl)(methyl)amino)phenyl)piperidine-2,6-dione], the 50% degradation concentration (DC50) in experiment [1] amounted to 0.0074 µM; in experiment [2], 0.0293 µM.

For the molecule `CS(=O)(=O)N1CCc2cccc(Nc3nc(Nc4ccc(N5CCC(N6CCN(CCC7CCN(c8ccc(C9CCC(=O)NC9=O)c(F)c8)CC7)CC6)CC5)c(F)c4)nc4[nH]ccc34)c21` (stereo not drawn) [Example 9, 3-(2-fluoro-4-(4-(2-(4-(1-(2-fluoro-4-((4-((1-(methylsulfonyl)indolin-7-yl)amino)-7H-pyrrolo[2,3-d]pyrimidin-2-yl)amino)phenyl)piperidin-4-yl)piperazin-1-yl)ethyl)piperidin-1-yl)phenyl)piperidine-2,6-dione], the half-maximal degradation concentration (DC50) worked out at 0.0191 µM in experiment [1] and 0.0167 µM in experiment [2].

Turning to `CS(=O)(=O)N1CCc2cccc(Nc3nc(Nc4ccc(N5CCC(N6CCN(CCC7CCN(c8ccc(C9CCC(=O)NC9=O)c(C#N)c8)CC7)CC6)CC5)c(F)c4)nc4[nH]ccc34)c21` (stereo not drawn) [Example 10, 2-(2,6-dioxopiperidin-3-yl)-5-(4-(2-(4-(1-(2-fluoro-4-((4-((1-(methylsulfonyl)indolin-7-yl)amino)-7H-pyrrolo[2,3-d]pyrimidin-2-yl)amino)phenyl)piperidin-4-yl)piperazin-1-yl)ethyl)piperidin-1-yl)benzonitrile], the results for the half-maximal degradation concentration (DC50) in experiment [1] and in experiment [2] were 0.0093 µM and more than 10 µM, respectively.

As for `CS(=O)(=O)N1CCc2cccc(Nc3nc(Nc4ccc(N5CCC(N6CCN(C(=O)CCN7CCC(c8ccc(C9CCC(=O)NC9=O)cc8)CC7)CC6)CC5)c(F)c4)nc4[nH]ccc34)c21` (stereo not drawn) [Example 11, 3-(4-(1-(3-(4-(1-(2-fluoro-4-((4-((1-(methylsulfonyl)indolin-7-yl)amino)-7H-pyrrolo[2,3-d]pyrimidin-2-yl)amino)phenyl)piperidin-4-yl)piperazin-1-yl)-3-oxopropyl)piperidin-4-yl)phenyl)piperidine-2,6-dione], the DC50 in experiment [1] was 0.0237 µM; in experiment [2], 0.123 µM.

For the molecule `CS(=O)(=O)N1CCc2cccc(Nc3nc(Nc4ccc(N5CCC(N6CCN(C(=O)CC7CCN(c8ccc(C9CCC(=O)NC9=O)cc8)CC7)CC6)CC5)c(F)c4)nc4[nH]ccc34)c21` (stereo not drawn) [Example 12, 3-(4-(4-(2-(4-(1-(2-fluoro-4-((4-((1-(methylsulfonyl)indolin-7-yl)amino)-7H-pyrrolo[2,3-d]pyrimidin-2-yl)amino)phenyl)piperidin-4-yl)piperazin-1-yl)-2-oxoethyl)piperidin-1-yl)phenyl)piperidine-2,6-dione], the DC50 came to 0.0124 µM in experiment [1] and 0.0335 µM in experiment [2].

Consider `CS(=O)(=O)N1CCc2cccc(Nc3nc(Nc4ccc(N5CCC(N6CCN(CC[C@H]7CCN(c8ccc(C9CCC(=O)NC9=O)cc8)C7)CC6)CC5)c(F)c4)nc4[nH]ccc34)c21` (stereo partly drawn) [Example 13, 3-(4-((S)-3-(2-(4-(1-(2-fluoro-4-((4-((1-(methylsulfonyl)indolin-7-yl)amino)-7H-pyrrolo[2,3-d]pyrimidin-2-yl)amino)phenyl)piperidin-4-yl)piperazin-1-yl)ethyl)pyrrolidin-1-yl)phenyl)piperidine-2,6-dione], for which the DC50 amounted to 0.0111 µM in experiment [1] and 0.0293 µM in experiment [2].

Take `CS(=O)(=O)N1CCc2cccc(Nc3nc(Nc4ccc(N5CCC(N6CCN(C(=O)C7CCN(CC8CCN(c9ccc%10c(c9)C(=O)N(C9CCC(=O)NC9=O)C%10=O)CC8)CC7)CC6)CC5)c(F)c4)nc4[nH]ccc34)c21` (stereo not drawn) [Example 14, 2-(2,6-dioxopiperidin-3-yl)-5-(4-((4-(4-(1-(2-fluoro-4-((4-((1-(methylsulfonyl)indolin-7-yl)amino)-7H-pyrrolo[2,3-d]pyrimidin-2-yl)amino)phenyl)piperidin-4-yl)piperazine-1-carbonyl)piperidin-1-yl)methyl)piperidin-1-yl)isoindoline-1,3-dione]: the 50% degradation concentration (DC50) in experiment [1] turned out to be 0.0271 µM; in experiment [2], 0.0922 µM.

As for `CS(=O)(=O)N1CCc2cccc(Nc3nc(Nc4ccc(N5CCC(N6CCN(CC7CCN(c8ccc9c(c8)C(=O)N(C8CCC(=O)NC8=O)C9=O)CC7)CC6)CC5)c(F)c4)nc4[nH]ccc34)c21` (stereo not drawn) [Example 16, 2-(2,6-dioxopiperidin-3-yl)-5-(4-((4-(1-(2-fluoro-4-((4-((1-(methylsulfonyl)indolin-7-yl)amino)-7H-pyrrolo[2,3-d]pyrimidin-2-yl)amino)phenyl)piperidin-4-yl)piperazin-1-yl)methyl)piperidin-1-yl)isoindoline-1,3-dione], the DC50 worked out at 0.0337 µM in experiment [1] and 0.0326 µM in experiment [2].

Take `CS(=O)(=O)N1CCc2cccc(Nc3nc(Nc4ccc(N5CCC(N6CCN(CCC7CCN(c8ccc9c(c8)C(=O)N(C8CCC(=O)NC8=O)C9=O)CC7)CC6)CC5)c(F)c4)nc4[nH]ccc34)c21` (stereo not drawn) [Example 17, 2-(2,6-dioxopiperidin-3-yl)-5-(4-(2-(4-(1-(2-fluoro-4-((4-((1-(methylsulfonyl)indolin-7-yl)amino)-7H-pyrrolo[2,3-d]pyrimidin-2-yl)amino)phenyl)piperidin-4-yl)piperazin-1-yl)ethyl)piperidin-1-yl)isoindoline-1,3-dione]: the 50% degradation concentration (DC50) in experiment [1] amounted to 0.0096 µM; in experiment [2], 0.0308 µM.

Take `CS(=O)(=O)N1CCc2cccc(Nc3nc(Nc4ccc(N5CCC(N6CCN(CCC7CCN(c8ccc9c(c8)CN(C8CCC(=O)NC8=O)C9=O)CC7)CC6)CC5)c(F)c4)nc4[nH]ccc34)c21` (stereo not drawn) [Example 18, 3-(5-(4-(2-(4-(1-(2-fluoro-4-((4-((1-(methylsulfonyl)indolin-7-yl)amino)-7H-pyrrolo[2,3-d]pyrimidin-2-yl)amino)phenyl)piperidin-4-yl)piperazin-1-yl)ethyl)piperidin-1-yl)-1-oxoisoindolin-2-yl)piperidine-2,6-dione]: the half-maximal degradation concentration (DC50) in experiment [1] was 0.0141 µM; in experiment [2], 0.0108 µM.

Take `CS(=O)(=O)N1CCc2cccc(Nc3nc(Nc4ccc(N5CCC(N6CCN(CCOc7cccc8c7CN(C7CCC(=O)NC7=O)C8=O)CC6)CC5)c(F)c4)nc4[nH]ccc34)c21` (stereo not drawn) [Example 20, 3-(4-(2-(4-(1-(2-fluoro-4-((4-((1-(methylsulfonyl)indolin-7-yl)amino)-7H-pyrrolo[2,3-d]pyrimidin-2-yl)amino)phenyl)piperidin-4-yl)piperazin-1-yl)ethoxy)-1-oxoisoindolin-2-yl)piperidine-2,6-dione]: the half-maximal degradation concentration (DC50) in experiment [1] came out at 0.0097 µM; in experiment [2], 0.0147 µM.

Values taken from US12643903B2, “Bifunctional compounds for degradation of EGFR and related methods of use” (BeiGene, Ltd., priority 2020, dated 2026).
